Test system: Trichoderma reesei X3AB1 strain
Experiment: Test 1/Test 2: amount of protein produced (Bradford method) in culture supernatant
Format: cell-based
Method: Trichoderma reesei X3AB1 strain (J. Ind. Microbiol. Biotechnol., 2012, 174: 1-9; hereinafter, referred to as X3AB1 strain) was cultured in a cellulose-containing culture medium to produce a protein containing a cellulase. As preculture, 50 mL of a culture medium was added to a 500 mL flask, spores of X3AB1 strain were inoculated at 1×10^5 cells/mL, and shaking culture was performed at 220 rpm (PRXYg-98R from PRECI CO., LTD.) at 28° C. The culture medium composition was as follows: 1% glucose, 0.14% (NH4)2SO4, 0.2% KH2PO4, 0.03% CaCl2·2H2O, 0.03% MgSO4·7H2O, 0.1% Bacto Peptone (BD Difco), 0.05% Bacto Yeast extract (BD Difco), 0.1% TWEEN® 80 (polysorbate 80), 0.1% Trace element and 50 mM tartrate buffer (pH 4.0). The composition of the Trace element was as follows: 6 mg of H3BO3, 26 mg of (NH4)6Mo7O24·4H2O, 100 mg of FeCl3·6H2O, 40 mg of CuSO4·5H2O, 8 mg of MnCl2·4H2O and 200 mg of ZnCl2 which were diluted to 100 mL with distilled water.
Main culture was performed after 2 days of preculture. […]
The culture solutions obtained in Comparative Example 1 and Examples 1 and 2 were centrifuged. […] The concentration of protein in the supernatant was measured by the Bradford method. The protein concentration of the supernatant was calculated on the basis of a calibration curve with bovine γ-globulin as standard protein using Quick Start Protein Assay (BioRad) based on the Bradford method, and the protein concentration was defined as an amount of protein produced. […]
For the culture solutions obtained from Comparative Examples 2 and 3 and Examples 3 to 6, the amount of protein produced was measured in the same manner as in Test 1. […]

N[C@@H]1O[C@H](CO)[C@@H](O)[C@H](O)[C@H]1O [β-D-glucopyranosylamine]
increase of maximum amount of protein produced as compared to Comparative Example 1 (Example 1: 0.5% added to initial culture medium of main culture, maximum on day 3 of culture, 10% powder cellulose medium): ≥ 20% | increase of maximum amount of protein produced as compared to Comparative Example 1 (Example 2: 8% aqueous solution fed 0.6 g/L initial culture medium/hr at 15-63 hr (total 0.2%), maximum on day 4 of culture): ≥ 20% | protein productivity as the amount added in the culture increased (Examples 3 to 6: fed together with glucose (38% glucose/2% or 35% glucose/5% aqueous solution) versus 40% glucose feed (Comparative Examples 2 and 3)): tended to be improved
